Test results from the NIST ThermoML archive (doi:10.1016/j.fluid.2010.05.019).

Experiments:
[1] = wn = mass fraction of the nth substance listed; details: 298.15 K, 101 kPa, Liquid, Alternating current cell with electrodes
[2] = 298.15 K, Liquid; for electrical conductivity: 101 kPa, Alternating current cell with electrodes; for viscosity / mass density: 101.33 kPa; for viscosity: Cone and plate viscometry; for mass density: Pycnometric method

C1CC[NH2+]C1.CCCCCCC(=O)[O-] [pyrrolidinium heptanoate] + O
[1]
Details	electrical conductivity [S/m]
w2 = 0	0.186
w2 = 0.0476	0.528
w2 = 0.0909	0.74
w2 = 0.1489	1.13
w2 = 0.2	1.41
w2 = 0.2593	1.8
w2 = 0.2857	1.97
w2 = 0.3103	2.12
w2 = 0.3333	2.22
w2 = 0.3548	2.31
w2 = 0.375	2.38
w2 = 0.3939	2.42
w2 = 0.403	2.44
w2 = 0.4203	2.47
w2 = 0.4444	2.53
w2 = 0.4595	2.56
w2 = 0.4872	2.59
w2 = 0.5	2.6
w2 = 0.5238	2.61
w2 = 0.5556	2.62
w2 = 0.608	2.47
w2 = 0.7011	2.12
w2 = 0.805	1.52
w2 = 0.905	0.728

O=C[O-].c1ccc2[nH+]cccc2c1 [quinolinium formate] + O
[1]
Details	electrical conductivity [S/m]
w2 = 0	0.415
w2 = 0.0566	0.621
w2 = 0.0909	0.854
w2 = 0.1667	1.38
w2 = 0.2	1.59
w2 = 0.2593	2.01
w2 = 0.3103	2.47
w2 = 0.3548	2.84
w2 = 0.3939	3.1
w2 = 0.4444	3.49
w2 = 0.4595	3.59
w2 = 0.5	3.81
w2 = 0.5652	4.11
w2 = 0.6	4.23
w2 = 0.6552	4.3
w2 = 0.7059	4.26
w2 = 0.75	4.12
w2 = 0.8	3.94
w2 = 0.8571	3.37
w2 = 0.9	2.75

O [water] + C1CC[NH2+]C1.CCCCCCCC(=O)[O-]
Details	electrical conductivity [S/m]
[1], w1 = 1	0.0001

C1CC[NH2+]C1.CCCCCCCCC(=O)[O-] [pyrrolidinium nonanoate] + O
[1]
Details	electrical conductivity [S/m]
w2 = 0	0.064
w2 = 0.0476	0.073
w2 = 0.0909	0.122
w2 = 0.1667	0.295
w2 = 0.2	0.392
w2 = 0.2593	0.579
w2 = 0.3103	0.754
w2 = 0.3548	0.915
w2 = 0.3939	1.07
w2 = 0.4595	1.29
w2 = 0.5	1.44
w2 = 0.5556	1.61
w2 = 0.5833	1.68
w2 = 0.6	1.73
w2 = 0.6154	1.76
w2 = 0.6296	1.79
w2 = 0.6429	1.81
w2 = 0.6552	1.84
w2 = 0.6667	1.85
w2 = 0.7143	1.87
w2 = 0.8065	1.63
w2 = 0.902	1.08

O=C[O-].c1ccc2[nH+]cccc2c1 [quinolinium formate]
[2]
Details	electrical conductivity [S/m]	mass density [kg/m3]	viscosity [mPa·s]
–	0.415	1153	8.2

O [water] + CC[NH+](C(C)C)C(C)C.O=C[O-]
Details	electrical conductivity [S/m]
[1], w1 = 1	0.0001

CC[NH+](C(C)C)C(C)C.O=C[O-] [ethyldiisopropylammonium formate]
[2]
Details	electrical conductivity [S/m]	mass density [kg/m3]	viscosity [mPa·s]
–	0.586	1014.4	18

C1CC[NH2+]C1.O=[N+]([O-])[O-] [pyrrolidinium nitrate] + O
[1]
Details	electrical conductivity [S/m]
w2 = 0	5.01
w2 = 0.0476	6.79
w2 = 0.0908	7.74
w2 = 0.1665	9.11
w2 = 0.1999	9.7
w2 = 0.2591	10.4
w2 = 0.3101	10.9
w2 = 0.3546	11.1
w2 = 0.3937	11.3
w2 = 0.4592	11.2
w2 = 0.4998	10.8
w2 = 0.5553	10.9
w2 = 0.5998	10.4
w2 = 0.655	9.97
w2 = 0.7013	9.42
w2 = 0.7999	7.86
w2 = 0.8504	6.1
w2 = 0.9074	4.5
w2 = 0.96	2.5
w2 = 0.9987	0.122

C1CC[NH2+]C1.CC(=O)[O-] [pyrrolidinium acetate]
[2]
Details	electrical conductivity [S/m]	mass density [kg/m3]	viscosity [mPa·s]
–	0.594	1054.3	30.2

O [water] + Cc1cccc[n+]1C.O=C[O-]
Details	electrical conductivity [S/m]
[1], w1 = 1	0.0001

C1CC[NH2+]C1.O=C[O-] [pyrrolidinium formate] + O
[1]
Details	electrical conductivity [S/m]
w2 = 0	3.29
w2 = 0.0251	4.01
w2 = 0.0501	4.44
w2 = 0.0907	4.95
w2 = 0.1666	5.99
w2 = 0.2304	6.71
w2 = 0.2853	7.2
w2 = 0.3329	7.54
w2 = 0.3745	7.73
w2 = 0.4113	7.83
w2 = 0.4439	7.83
w2 = 0.4995	7.77
w2 = 0.5647	7.33
w2 = 0.5828	7.04
w2 = 0.6662	6.36
w2 = 0.7055	5.92
w2 = 0.7496	5.36
w2 = 0.7917	4.48
w2 = 0.8607	3.18
w2 = 0.9018	2.13
w2 = 0.9106	1.88

Cc1cccc[n+]1C.O=C[O-] [1,2-dimethylpyridinium formate]
[2]
Details	electrical conductivity [S/m]	mass density [kg/m3]	viscosity [mPa·s]
–	1.04	1020.9	2.61

Cc1ccc[n+](C)c1C.O=C[O-] [1,2,3-trimethylpyridinium formate] + O
[1]
Details	electrical conductivity [S/m]
w2 = 0	0.68
w2 = 0.0476	0.837
w2 = 0.0909	0.963
w2 = 0.1666	1.33
w2 = 0.1999	1.48
w2 = 0.2592	1.88
w2 = 0.3103	2.31
w2 = 0.3547	2.69
w2 = 0.4117	3.23
w2 = 0.4594	3.62
w2 = 0.4999	3.95
w2 = 0.5555	4.37
w2 = 0.5999	4.65
w2 = 0.6551	4.74
w2 = 0.7014	4.75
w2 = 0.7499	4.75
w2 = 0.7999	4.51
w2 = 0.8571	3.85
w2 = 0.9	3.13
w2 = 0.95	1.93

C1CC[NH2+]C1.CCCCCCCC(=O)[O-] [pyrrolidinium octanoate] + O
[1]
Details	electrical conductivity [S/m]
w2 = 0	0.08
w2 = 0.0475	0.223
w2 = 0.0908	0.347
w2 = 0.1664	0.635
w2 = 0.1997	0.795
w2 = 0.2589	1.06
w2 = 0.31	1.31
w2 = 0.3544	1.58
w2 = 0.3935	1.7
w2 = 0.459	1.93
w2 = 0.4996	2.06
w2 = 0.5551	2.18
w2 = 0.5996	2.23
w2 = 0.6292	2.23
w2 = 0.6548	2.22
w2 = 0.7011	2.17
w2 = 0.7558	2.03
w2 = 0.7724	1.97
w2 = 0.8037	1.83
w2 = 0.8212	1.68

O [water] + C1CC[NH2+]C1.CC(=O)[O-]
Details	electrical conductivity [S/m]
[1], w1 = 1	0.0001

C1CC[NH2+]C1.CCCCCC(=O)[O-] [pyrrolidinium hexanoate]
[2]
Details	electrical conductivity [S/m]	mass density [kg/m3]	viscosity [mPa·s]
–	0.204	988	27.4

C1CC[NH2+]C1.O=C[O-] [pyrrolidinium formate]
[2]
Details	electrical conductivity [S/m]	viscosity [mPa·s]
–	3.29	2.5

C1CC[NH2+]C1.CCCCCCCC(=O)[O-] [pyrrolidinium octanoate]
[2]
Details	electrical conductivity [S/m]	mass density [kg/m3]	viscosity [mPa·s]
–	0.08	949.5	36.5

C1CC[NH2+]C1.CCCCCCC(=O)[O-] [pyrrolidinium heptanoate]
[2]
Details	electrical conductivity [S/m]	mass density [kg/m3]
–	0.186	972.1

CC[NH+](C(C)C)C(C)C.O=C[O-] [ethyldiisopropylammonium formate] + O
[1]
Details	electrical conductivity [S/m]
w2 = 0	0.586
w2 = 0.0625	0.88
w2 = 0.1176	1.13
w2 = 0.1667	1.39
w2 = 0.2105	1.67
w2 = 0.25	1.96
w2 = 0.3182	2.4
w2 = 0.3478	2.63
w2 = 0.4231	3.11
w2 = 0.4643	3.36
w2 = 0.5	3.51
w2 = 0.5588	3.86
w2 = 0.5833	3.93
w2 = 0.6053	3.96
w2 = 0.625	3.97
w2 = 0.6429	3.97
w2 = 0.6591	3.96
w2 = 0.7	3.97
w2 = 0.7115	3.97
w2 = 0.7222	3.96

O [water] + O=C[O-].c1ccc2[nH+]cccc2c1
Details	electrical conductivity [S/m]
[1], w1 = 1	0.0001

O [water] + C1CC[NH2+]C1.CCCCCCCCC(=O)[O-]
Details	electrical conductivity [S/m]
[1], w1 = 1	0.0001

O [water] + C1CC[NH2+]C1.O=C[O-]
Details	electrical conductivity [S/m]
[1], w1 = 1	0.0001

C1CC[NH2+]C1.O=[N+]([O-])[O-] [pyrrolidinium nitrate]
[2]
Details	electrical conductivity [S/m]	viscosity [mPa·s]
–	5.01	5.2

CCCC(C)[NH3+].O=C[O-] (stereo unspecified) [2-pentanaminium formate]
[2]
Details	electrical conductivity [S/m]	mass density [kg/m3]
–	0.036	1163

C1CC[NH2+]C1.CCCCCC(=O)[O-] [pyrrolidinium hexanoate] + O
[1]
Details	electrical conductivity [S/m]
w2 = 0	0.204
w2 = 0.0476	0.568
w2 = 0.0909	0.95
w2 = 0.1489	1.54
w2 = 0.1667	1.73
w2 = 0.1837	1.91
w2 = 0.2	2.01
w2 = 0.2308	2.21
w2 = 0.2593	2.4
w2 = 0.2727	2.48
w2 = 0.2982	2.61
w2 = 0.3103	2.65
w2 = 0.3333	2.76
w2 = 0.3548	2.86
w2 = 0.3846	2.91
w2 = 0.403	2.91
w2 = 0.4521	2.92
w2 = 0.5	2.89
w2 = 0.5294	2.85
w2 = 0.5506	2.81
w2 = 0.601	2.53
w2 = 0.7015	1.96
w2 = 0.8004	1.21
w2 = 0.9002	0.551

O [water]
Details	electrical conductivity [S/m]
[2]	0.0001

CCCC(C)[NH3+].O=C[O-] (stereo unspecified) [2-pentanaminium formate] + O
[1]
Details	electrical conductivity [S/m]
w2 = 0	0.036
w2 = 0.056	0.121
w2 = 0.1005	0.197
w2 = 0.1623	0.342
w2 = 0.2793	0.847
w2 = 0.3676	1.38
w2 = 0.4366	1.92
w2 = 0.5375	2.8
w2 = 0.6078	3.3
w2 = 0.6595	3.51
w2 = 0.6992	3.6
w2 = 0.7561	3.57
w2 = 0.7999	3.4
w2 = 0.88	2.93
w2 = 0.9	2.73
w2 = 0.91	2.38
w2 = 0.925	2.13
w2 = 0.933	1.94
w2 = 0.943	1.71
w2 = 0.954	1.47
w2 = 0.967	1.13
w2 = 0.982	0.677

O [water] + CCCC(C)[NH3+].O=C[O-]
Details	electrical conductivity [S/m]
[1], w1 = 1	0.0001

O [water] + C1CC[NH2+]C1.O=[N+]([O-])[O-]
Details	electrical conductivity [S/m]
[1], w1 = 1	0.0001

Cc1cccc[n+]1C.O=C[O-] [1,2-dimethylpyridinium formate] + O
[1]
Details	electrical conductivity [S/m]
w2 = 0	1.04
w2 = 0.051	1.37
w2 = 0.0908	1.64
w2 = 0.1665	2.21
w2 = 0.2854	3.27
w2 = 0.333	3.77
w2 = 0.4114	4.52
w2 = 0.4441	4.74
w2 = 0.4997	5.26
w2 = 0.5451	5.56
w2 = 0.6151	5.98
w2 = 0.6549	6.16
w2 = 0.7056	6.23
w2 = 0.7617	6
w2 = 0.7998	5.68
w2 = 0.857	4.85
w2 = 0.8748	4.51
w2 = 0.8888	4.21
w2 = 0.8999	3.93
w2 = 0.909	3.7

O [water] + C1CC[NH2+]C1.CCCCCCC(=O)[O-]
Details	electrical conductivity [S/m]
[1], w1 = 1	0.0001

C1CC[NH2+]C1.CC(=O)[O-] [pyrrolidinium acetate] + O
[1]
Details	electrical conductivity [S/m]
w2 = 0	0.594
w2 = 0.0474	0.685
w2 = 0.0906	0.716
w2 = 0.1661	1.04
w2 = 0.1994	1.11
w2 = 0.2585	1.53
w2 = 0.3095	1.93
w2 = 0.3539	2.32
w2 = 0.393	2.64
w2 = 0.4585	3.24
w2 = 0.499	3.52
w2 = 0.5546	3.92
w2 = 0.599	4.09
w2 = 0.6543	4.3
w2 = 0.7007	4.37
w2 = 0.7554	4.43
w2 = 0.8033	4.23
w2 = 0.8328	4.02

O [water] + Cc1ccc[n+](C)c1C.O=C[O-]
Details	electrical conductivity [S/m]
[1], w1 = 1	0.0001

C1CC[NH2+]C1.CCCCCCCCC(=O)[O-] [pyrrolidinium nonanoate]
[2]
Details	electrical conductivity [S/m]	mass density [kg/m3]	viscosity [mPa·s]
–	0.064	931.5	74.4

Cc1ccc[n+](C)c1C.O=C[O-] [1,2,3-trimethylpyridinium formate]
[2]
Details	electrical conductivity [S/m]	mass density [kg/m3]	viscosity [mPa·s]
–	0.68	1167.6	10

O [water] + C1CC[NH2+]C1.CCCCCC(=O)[O-]
Details	electrical conductivity [S/m]
[1], w1 = 1	0.0001
